The supplement of paper PMC8882468

Tests used:
Test in all cases: CTG-3D luminescence at 96 h relative to day-0 seeding control (ratio to day 0); higher = more growth / less cytotoxicity; PDxO 3D drug screen (set 2), 96 h, CTG-3D normalised to day-0 seeding control.
[1] = tested on: HCI-002 (organoid from a triple-negative breast cancer xenograft)
[2] = tested on: HCI-011.E2 (organoid from an ER-positive breast cancer xenograft)
[3] = tested on: HCI-012 (organoid from a breast cancer xenograft)
[4] = tested on: HCI-017.E2 (organoid from an ER-positive breast cancer xenograft)
[5] = tested on: HCI-019 (organoid from a triple-negative breast cancer xenograft)
[6] = tested on: HCI-023 (organoid from a triple-negative breast cancer xenograft)

CO[C@H]1C[C@@H]2CC[C@@H](C)[C@@](O)(O2)C(=O)C(=O)N2CCCC[C@H]2C(=O)O[C@H]([C@H](C)C[C@@H]2CC[C@@H](OCCO)[C@H](OC)C2)CC(=O)[C@H](C)/C=C(\C)[C@@H](O)[C@@H](OC)C(=O)[C@H](C)C[C@H](C)/C=C/C=C/C=C/1C [everolimus]
CTG-3D luminescence at 96 h
Settings | 12.5 pM | 0.00025 µM | 0.005 µM | 0.1 µM | 1 µM | 10 µM | 100 µM | 625 fM
[1], days in culture: 127 | 1.87 | 2.27 | 2.16 | 2.43 | 2.17 | 2.2 | -0.00603 | 2.25
[1], days in culture: 155 | 3.94 | 3.58 | 4.06 | 4.09 | 2.96 | 2.78 | -0.00382 | 3.53
[1], days in culture: 168 | 3.61 | 3.15 | 3.32 | 2.37 | 2.67 | 2.73 | -0.000729 | 3.88
[2], days in culture: 74 | 2.42 | 2.16 | 1.14 | 0.719 | 0.223 | 0.141 | -0.0134 | 2.48
[3], days in culture: 214 | 2.76 | 1.49 | 1.21 | 1.84 | 1.41 | 1.69 | -0.000454 | 2.25
[3], days in culture: 243 | 1.34 | 2.16 | 1.46 | 1.87 | 1.38 | 2.11 | -0.000228 | 1.9
[3], days in culture: 256 | 2.03 | 1.8 | 1.71 | 2.19 | 1.42 | 1.38 | -0.00358 | 1.92
[3], days in culture: 284 | 1.39 | 1.69 | 1.18 | 1.72 | 0.508 | 0.327 | -0.00211 | 2.6
[4], days in culture: 85 | 2.06 | 1.86 | 1.32 | 0.959 | 0.595 | 0.493 | 0.00146 | 2.29
[5], days in culture: 173 | 1.57 | 1.31 | 1.21 | 1.38 | 1.1 | 0.954 | 0.000122 | 1.63
[5], days in culture: 194 | 1.27 | 0.886 | 1.15 | 1.13 | 1.33 | 0.725 | -0.00106 | 1.7
[5], days in culture: 215 | 0.96 | 0.554 | 0.902 | 0.622 | 0.482 | 0.326 | 0.000571 | 1.76
[6], days in culture: 223 | 2.04 | 1.82 | 1.17 | 1.19 | 0.991 | 1.28 | -0.00123 | 1.43
[6], days in culture: 238 | 1.22 | 1.01 | 1 | 1.23 | 1.61 | 0.915 | -0.00183 | 1.32
[6], days in culture: 252 | 1.97 | 1.75 | 1.51 | 1.44 | 1.55 | 1.91 | -0.00273 | 1.89

CTG-3D luminescence at 96 h
Settings | 12.5 pM | 0.00025 µM | 0.005 µM | 0.1 µM | 1 µM | 10 µM | 100 µM | 625 fM
[2] | 0.746 | 0.907 | 0.684 | 0.675 | 0.247 | 0.327 | -4.7e-05 | 1.14
[4] | 1.59 | 1.63 | 1.8 | 1.25 | 0.822 | 0.73 | 0.00266 | 1.99

CS(=O)(=O)CCNCc1ccc(-c2ccc3ncnc(Nc4ccc(OCc5cccc(F)c5)c(Cl)c4)c3c2)o1 [lapatinib]
CTG-3D luminescence at 96 h
Settings | 12.5 pM | 0.00025 µM | 0.005 µM | 0.1 µM | 1 µM | 10 µM | 100 µM | 625 fM
[1], days in culture: 127 | 2.38 | 2.9 | 2.7 | 3.41 | 2.39 | 1.07 | 0.00596 | 2.75
[1], days in culture: 155 | 5.69 | 4.91 | 5.49 | 7.04 | 4.12 | 0.801 | -0.00284 | 4.59
[1], days in culture: 168 | 3.63 | 3.77 | 3.93 | 3.54 | 3.53 | 1.01 | -0.0013 | 3.8
[2], days in culture: 74 | 2.75 | 2.14 | 2.07 | 2.34 | 1.66 | 0.607 | -0.00505 | 2.76
[3], days in culture: 214 | 2.69 | 3.04 | 1.24 | 2.07 | 1.18 | 0.474 | 0.0116 | 2.99
[3], days in culture: 243 | 2.16 | 2.36 | 2.03 | 2.3 | 1.73 | 1.17 | 0.00575 | 2.33
[3], days in culture: 256 | 1.96 | 2.5 | 2.14 | 2.69 | 1.63 | 1.22 | 0.0102 | 2.35
[3], days in culture: 284 | 1.64 | 2.45 | 1.64 | 2.11 | 1.41 | 0.504 | -0.00107 | 3.12
[4], days in culture: 85 | 2.34 | 1.93 | 1.68 | 2.32 | 1.61 | 0.581 | 0.0189 | 2.45
[5], days in culture: 173 | 1.7 | 2.33 | 1.14 | 2.61 | 1.9 | 0.415 | 0.078 | 1.93
[5], days in culture: 194 | 1.47 | 2.84 | 1.45 | 2.84 | 1.7 | 0.531 | 0.0607 | 2.78
[5], days in culture: 215 | 1.96 | 2.03 | 1.85 | 1.67 | 1.66 | 0.323 | 0.00321 | 2.07
[6], days in culture: 223 | 1.82 | 2.13 | 1.85 | 2.09 | 1.46 | 0.716 | 0.00541 | 1.72
[6], days in culture: 238 | 1.38 | 1.57 | 1.41 | 1.6 | 1.91 | 0.911 | 0.00517 | 1.57
[6], days in culture: 252 | 2.21 | 2.11 | 1.77 | 1.94 | 1.86 | 1.14 | 0.00206 | 1.9

CTG-3D luminescence at 96 h
Settings | 12.5 pM | 0.00025 µM | 0.005 µM | 0.1 µM | 1 µM | 10 µM | 100 µM | 625 fM
[2] | 1.6 | 1.63 | 1.26 | 1.72 | 1.57 | 0.982 | 0.0218 | 2.23
[4] | 2.11 | 2.75 | 2.4 | 2.37 | 1.95 | 0.905 | 0.00683 | 2.65
